Data from ChEMBL document CHEMBL1201862, “PubChem BioAssay data set” (2004).
Active and inactive are the calls of the source.

Assays:
cells = assay type: functional
[1] = target: T1, Kappa-type opioid receptor (Homo sapiens, UniProt P41145); assay type: functional
[2] = Vero E6 cell cytotoxicity, dose response, cytotoxicity control for non-replicating M. tuberculosis project, secondary assay (AID 492998); assay type: functional, VeroE6; settings: Vero C1008
INS1 = assay: beta cell apoptosis inhibitors, cytokine rescue, dose response, luminescence, retest (AID 449756); assay type: functional, cell-based; settings: Rattus norvegicus;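 further: cell death triggered by IL-1 beta plus TNF-alpha plus IFN-gamma mixture; protective hits raise ATP signal compared with cytokine alone wells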
[3] = target: T2, Type-1 angiotensin II receptor (Homo sapiens, UniProt P30556); assay: AT1 receptor antagonists, dose response, selectivity assay for APJ receptor antagonist project, cell-based, uHTS hits (AID 463214); assay type: functional;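 further: antagonist potency against angiotensin II stimulated AT1 response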
T2 sequence (P30556 whole entry): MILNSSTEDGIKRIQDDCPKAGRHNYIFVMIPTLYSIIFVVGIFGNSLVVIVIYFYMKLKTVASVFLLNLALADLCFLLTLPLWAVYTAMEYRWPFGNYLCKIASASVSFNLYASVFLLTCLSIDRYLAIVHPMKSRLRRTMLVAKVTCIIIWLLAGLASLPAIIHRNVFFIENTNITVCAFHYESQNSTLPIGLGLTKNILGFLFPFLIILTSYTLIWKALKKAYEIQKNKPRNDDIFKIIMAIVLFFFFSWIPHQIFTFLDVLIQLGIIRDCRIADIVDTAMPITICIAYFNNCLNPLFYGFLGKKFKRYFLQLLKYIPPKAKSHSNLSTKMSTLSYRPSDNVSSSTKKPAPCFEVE

Beta-galactosidase [4] = target: T3, Beta-galactosidase (Escherichia coli, UniProt Q8VNN2); assay type: functional
T3 sequence (Q8VNN2 whole entry): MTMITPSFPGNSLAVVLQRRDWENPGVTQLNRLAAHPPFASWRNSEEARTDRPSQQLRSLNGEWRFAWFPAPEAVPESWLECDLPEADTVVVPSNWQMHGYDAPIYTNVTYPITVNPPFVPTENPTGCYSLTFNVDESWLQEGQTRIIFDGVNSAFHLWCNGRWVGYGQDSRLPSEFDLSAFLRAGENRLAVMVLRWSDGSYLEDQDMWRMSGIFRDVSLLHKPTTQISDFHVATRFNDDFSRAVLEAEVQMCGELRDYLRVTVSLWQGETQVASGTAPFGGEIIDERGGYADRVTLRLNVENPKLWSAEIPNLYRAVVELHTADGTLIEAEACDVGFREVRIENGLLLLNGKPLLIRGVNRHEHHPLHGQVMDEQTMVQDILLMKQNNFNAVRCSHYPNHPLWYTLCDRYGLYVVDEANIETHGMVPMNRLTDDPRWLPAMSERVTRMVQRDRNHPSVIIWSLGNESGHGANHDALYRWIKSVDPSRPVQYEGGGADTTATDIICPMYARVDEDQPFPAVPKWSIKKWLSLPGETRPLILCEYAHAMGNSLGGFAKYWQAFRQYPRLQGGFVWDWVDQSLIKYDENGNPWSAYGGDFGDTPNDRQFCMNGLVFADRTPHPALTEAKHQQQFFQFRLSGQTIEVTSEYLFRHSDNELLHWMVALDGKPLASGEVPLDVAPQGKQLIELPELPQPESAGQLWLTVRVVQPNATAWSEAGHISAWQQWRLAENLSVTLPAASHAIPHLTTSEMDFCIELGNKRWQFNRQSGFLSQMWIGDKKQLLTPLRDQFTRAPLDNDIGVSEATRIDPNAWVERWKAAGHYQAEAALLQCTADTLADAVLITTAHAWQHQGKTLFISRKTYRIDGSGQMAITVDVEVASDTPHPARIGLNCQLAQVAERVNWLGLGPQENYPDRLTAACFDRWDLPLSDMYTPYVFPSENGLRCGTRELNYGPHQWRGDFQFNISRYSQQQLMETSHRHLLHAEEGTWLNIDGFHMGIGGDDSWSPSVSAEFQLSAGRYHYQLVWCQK

[5] = target: T4, Microphthalmia-associated transcription factor (Homo sapiens, UniProt O75030); assay: TRPM1 promoter luciferase signal decrease, dose response, MITF inhibitor project, cell-based, SK-MEL-5, cherry-picked, set 3 (AID 493073); assay type: functional
T4 sequence (O75030 whole entry): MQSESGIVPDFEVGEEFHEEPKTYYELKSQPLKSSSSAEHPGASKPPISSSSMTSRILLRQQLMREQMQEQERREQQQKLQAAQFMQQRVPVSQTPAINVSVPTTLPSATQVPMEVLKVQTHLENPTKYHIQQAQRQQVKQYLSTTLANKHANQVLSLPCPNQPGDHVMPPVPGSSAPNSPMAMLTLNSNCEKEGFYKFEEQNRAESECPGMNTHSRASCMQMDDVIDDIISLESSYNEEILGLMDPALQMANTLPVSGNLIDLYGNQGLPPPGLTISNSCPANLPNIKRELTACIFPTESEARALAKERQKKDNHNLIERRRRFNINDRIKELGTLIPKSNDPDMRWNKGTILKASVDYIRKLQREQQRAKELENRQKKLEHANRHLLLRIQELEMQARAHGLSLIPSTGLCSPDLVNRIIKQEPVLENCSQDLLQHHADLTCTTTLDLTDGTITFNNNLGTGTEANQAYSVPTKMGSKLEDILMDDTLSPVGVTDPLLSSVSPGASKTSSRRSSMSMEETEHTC

Beta-galactosidase [6] = target: T3, Beta-galactosidase; assay: PubChem AID 485352; assay type: functional
[7] = target: T1, Kappa-type opioid receptor; assay type: functional; remark: listed apart in the source
[8] = THP-1 cell cytotoxicity, dose response, cytotoxicity control for non-replicating M. tuberculosis project (AID 489025); assay type: functional
[9] = HepG2 cell cytotoxicity, dose response, cytotoxicity control for non-replicating M. tuberculosis project (AID 489018); assay type: functional; settings: Mycobacterium tuberculosis
Nonstructural protein 1 = Nonstructural protein 1 (Influenza A virus, UniProt Q194T2); assay type: functional, Influenza A virus (A/California/07/2009(H1N1))
Nonstructural protein 1, sequence (Q194T2 whole entry): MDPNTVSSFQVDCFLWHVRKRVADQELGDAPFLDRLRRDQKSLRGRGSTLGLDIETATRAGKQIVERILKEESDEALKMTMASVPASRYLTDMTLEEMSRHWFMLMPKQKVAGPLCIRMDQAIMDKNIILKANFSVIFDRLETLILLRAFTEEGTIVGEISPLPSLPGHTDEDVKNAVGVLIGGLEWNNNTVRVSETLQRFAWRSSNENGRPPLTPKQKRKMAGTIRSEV

[10] = THP-1 cell cytotoxicity, dose response, cytotoxicity control for Vif-APOBEC3G degradation inhibitor project, THP-1 cells (AID 1117359); assay type: functional; settings: Human immunodeficiency virus 1, THP-1
[11] = Intein inhibitors as potential Tuberculosis drugs, a cytotoxicity screen. [Related pubchem assays (depositor defined):AID2221, AID2223, AID434968, AID435010, AID449749, AID449750, AID489010]; assay type: functional
[12] = Luminescent dose response cell-based high throughput screening assay for inhibitors of the Janus kinase 2 mutant JAK2V617F. [Related pubchem assays: 1446 (Primary screen.), 1521 (Confirmation assay.), 1486 (Counter screen.)]; assay type: functional
[13] = cytotoxicity in HEK-293T cells, dose response, cytotoxicity control for BCR NF-kB inhibitor project, luminescence, B-cell screen hits (AID 489021); assay type: functional, cell-based;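 further: HEK-293T cells carrying an NF-kB luciferase reporter; cells exposed to compound for about 14 hours before viability readout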
Protein RecA = target: T5, Protein RecA (Mycobacterium tuberculosis, UniProt P9WHJ3); assay: Fluorescence Cell-Free Homogeneous Dose Retest to Identify Inhibitors of RecA-Intein Splicing Activity. [Related pubchem assays (depositor defined):AID2097, AID2223, AID489010, AID492950]; assay type: functional
T5 sequence (P9WHJ3 whole entry): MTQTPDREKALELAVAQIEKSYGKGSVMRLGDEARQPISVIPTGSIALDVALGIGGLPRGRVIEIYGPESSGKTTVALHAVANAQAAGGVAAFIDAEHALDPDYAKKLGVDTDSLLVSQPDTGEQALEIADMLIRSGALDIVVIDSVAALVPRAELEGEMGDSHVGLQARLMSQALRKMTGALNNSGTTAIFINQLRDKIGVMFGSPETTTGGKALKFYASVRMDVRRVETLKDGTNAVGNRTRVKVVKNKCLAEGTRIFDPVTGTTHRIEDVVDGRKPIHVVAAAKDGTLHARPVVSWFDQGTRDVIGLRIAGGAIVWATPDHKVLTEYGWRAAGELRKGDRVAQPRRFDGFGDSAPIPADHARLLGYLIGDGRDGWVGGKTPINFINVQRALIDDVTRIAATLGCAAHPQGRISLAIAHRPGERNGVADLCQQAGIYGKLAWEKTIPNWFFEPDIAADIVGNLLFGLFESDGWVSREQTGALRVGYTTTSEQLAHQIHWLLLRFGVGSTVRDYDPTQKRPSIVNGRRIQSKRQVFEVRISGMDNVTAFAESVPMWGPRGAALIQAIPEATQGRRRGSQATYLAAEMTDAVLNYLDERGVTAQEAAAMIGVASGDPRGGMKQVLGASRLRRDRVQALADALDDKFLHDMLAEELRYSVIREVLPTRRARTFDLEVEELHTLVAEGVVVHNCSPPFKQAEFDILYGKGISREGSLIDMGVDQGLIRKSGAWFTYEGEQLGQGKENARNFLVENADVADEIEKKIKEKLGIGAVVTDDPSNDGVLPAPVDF

[14] = target: Benomyl/methotrexate resistance protein (Candida albicans, UniProt P28873); assay: CaMdr1 efflux pump inhibitor potency, dose response, singleplex, Cherry Pick1 hits (AID 588608); assay type: functional
Benomyl/methotrexate resistance protein, sequence (P28873 whole entry): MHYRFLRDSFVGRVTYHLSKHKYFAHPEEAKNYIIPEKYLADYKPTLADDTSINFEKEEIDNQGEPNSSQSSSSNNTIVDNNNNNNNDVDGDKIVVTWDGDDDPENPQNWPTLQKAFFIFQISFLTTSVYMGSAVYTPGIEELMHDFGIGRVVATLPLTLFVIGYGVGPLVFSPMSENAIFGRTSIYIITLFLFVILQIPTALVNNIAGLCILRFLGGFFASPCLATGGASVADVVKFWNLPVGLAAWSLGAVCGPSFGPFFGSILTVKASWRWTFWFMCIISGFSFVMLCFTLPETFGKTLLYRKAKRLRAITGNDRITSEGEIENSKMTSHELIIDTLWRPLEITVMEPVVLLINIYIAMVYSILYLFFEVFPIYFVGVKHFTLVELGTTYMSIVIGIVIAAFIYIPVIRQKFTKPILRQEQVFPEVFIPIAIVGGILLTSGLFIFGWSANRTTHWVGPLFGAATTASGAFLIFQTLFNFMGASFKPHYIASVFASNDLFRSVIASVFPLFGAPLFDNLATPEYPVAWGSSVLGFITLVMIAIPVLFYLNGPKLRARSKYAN

Vero = assay: cells; assay type: functional; settings: Chlorocebus sabaeus
[15] = target: T6, Replicative DNA helicase DnaB (Mycobacterium tuberculosis, UniProt P9WMR3); assay: DnaB intein splicing inhibitors, dose response, biochemical, cell-free fluorescence (AID 449749); assay type: functional
T6 sequence (P9WMR3 whole entry): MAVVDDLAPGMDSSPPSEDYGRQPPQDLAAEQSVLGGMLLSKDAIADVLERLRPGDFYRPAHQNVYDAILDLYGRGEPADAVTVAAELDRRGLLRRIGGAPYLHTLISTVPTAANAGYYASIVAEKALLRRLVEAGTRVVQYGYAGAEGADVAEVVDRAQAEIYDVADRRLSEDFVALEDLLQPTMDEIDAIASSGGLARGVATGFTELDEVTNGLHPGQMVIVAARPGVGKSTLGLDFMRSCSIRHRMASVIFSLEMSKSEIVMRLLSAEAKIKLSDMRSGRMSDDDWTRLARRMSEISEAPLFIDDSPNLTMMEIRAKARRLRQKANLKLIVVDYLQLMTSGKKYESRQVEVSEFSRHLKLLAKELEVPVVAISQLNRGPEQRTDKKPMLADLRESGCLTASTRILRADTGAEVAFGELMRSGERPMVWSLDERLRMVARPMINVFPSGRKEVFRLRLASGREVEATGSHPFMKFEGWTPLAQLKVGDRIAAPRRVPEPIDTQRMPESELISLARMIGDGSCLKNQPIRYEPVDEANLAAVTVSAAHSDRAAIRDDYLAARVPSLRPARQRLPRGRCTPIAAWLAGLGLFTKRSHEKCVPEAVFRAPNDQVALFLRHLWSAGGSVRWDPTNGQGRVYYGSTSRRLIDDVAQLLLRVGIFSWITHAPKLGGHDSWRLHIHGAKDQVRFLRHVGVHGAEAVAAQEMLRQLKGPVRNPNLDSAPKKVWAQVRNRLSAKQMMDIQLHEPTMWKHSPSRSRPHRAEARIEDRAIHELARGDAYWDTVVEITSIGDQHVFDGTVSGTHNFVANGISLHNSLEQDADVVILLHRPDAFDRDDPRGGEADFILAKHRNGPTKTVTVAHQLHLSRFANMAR

[16] = target: Voltage-dependent T-type calcium channel subunit alpha-1H (Homo sapiens, UniProt O95180); assay: Cav3.2 T-type channel inhibitors, cell-based, synthetic library set 1, calcium flux (AID 493022); assay type: functional
Voltage-dependent T-type calcium channel subunit alpha-1H, sequence (O95180 whole entry): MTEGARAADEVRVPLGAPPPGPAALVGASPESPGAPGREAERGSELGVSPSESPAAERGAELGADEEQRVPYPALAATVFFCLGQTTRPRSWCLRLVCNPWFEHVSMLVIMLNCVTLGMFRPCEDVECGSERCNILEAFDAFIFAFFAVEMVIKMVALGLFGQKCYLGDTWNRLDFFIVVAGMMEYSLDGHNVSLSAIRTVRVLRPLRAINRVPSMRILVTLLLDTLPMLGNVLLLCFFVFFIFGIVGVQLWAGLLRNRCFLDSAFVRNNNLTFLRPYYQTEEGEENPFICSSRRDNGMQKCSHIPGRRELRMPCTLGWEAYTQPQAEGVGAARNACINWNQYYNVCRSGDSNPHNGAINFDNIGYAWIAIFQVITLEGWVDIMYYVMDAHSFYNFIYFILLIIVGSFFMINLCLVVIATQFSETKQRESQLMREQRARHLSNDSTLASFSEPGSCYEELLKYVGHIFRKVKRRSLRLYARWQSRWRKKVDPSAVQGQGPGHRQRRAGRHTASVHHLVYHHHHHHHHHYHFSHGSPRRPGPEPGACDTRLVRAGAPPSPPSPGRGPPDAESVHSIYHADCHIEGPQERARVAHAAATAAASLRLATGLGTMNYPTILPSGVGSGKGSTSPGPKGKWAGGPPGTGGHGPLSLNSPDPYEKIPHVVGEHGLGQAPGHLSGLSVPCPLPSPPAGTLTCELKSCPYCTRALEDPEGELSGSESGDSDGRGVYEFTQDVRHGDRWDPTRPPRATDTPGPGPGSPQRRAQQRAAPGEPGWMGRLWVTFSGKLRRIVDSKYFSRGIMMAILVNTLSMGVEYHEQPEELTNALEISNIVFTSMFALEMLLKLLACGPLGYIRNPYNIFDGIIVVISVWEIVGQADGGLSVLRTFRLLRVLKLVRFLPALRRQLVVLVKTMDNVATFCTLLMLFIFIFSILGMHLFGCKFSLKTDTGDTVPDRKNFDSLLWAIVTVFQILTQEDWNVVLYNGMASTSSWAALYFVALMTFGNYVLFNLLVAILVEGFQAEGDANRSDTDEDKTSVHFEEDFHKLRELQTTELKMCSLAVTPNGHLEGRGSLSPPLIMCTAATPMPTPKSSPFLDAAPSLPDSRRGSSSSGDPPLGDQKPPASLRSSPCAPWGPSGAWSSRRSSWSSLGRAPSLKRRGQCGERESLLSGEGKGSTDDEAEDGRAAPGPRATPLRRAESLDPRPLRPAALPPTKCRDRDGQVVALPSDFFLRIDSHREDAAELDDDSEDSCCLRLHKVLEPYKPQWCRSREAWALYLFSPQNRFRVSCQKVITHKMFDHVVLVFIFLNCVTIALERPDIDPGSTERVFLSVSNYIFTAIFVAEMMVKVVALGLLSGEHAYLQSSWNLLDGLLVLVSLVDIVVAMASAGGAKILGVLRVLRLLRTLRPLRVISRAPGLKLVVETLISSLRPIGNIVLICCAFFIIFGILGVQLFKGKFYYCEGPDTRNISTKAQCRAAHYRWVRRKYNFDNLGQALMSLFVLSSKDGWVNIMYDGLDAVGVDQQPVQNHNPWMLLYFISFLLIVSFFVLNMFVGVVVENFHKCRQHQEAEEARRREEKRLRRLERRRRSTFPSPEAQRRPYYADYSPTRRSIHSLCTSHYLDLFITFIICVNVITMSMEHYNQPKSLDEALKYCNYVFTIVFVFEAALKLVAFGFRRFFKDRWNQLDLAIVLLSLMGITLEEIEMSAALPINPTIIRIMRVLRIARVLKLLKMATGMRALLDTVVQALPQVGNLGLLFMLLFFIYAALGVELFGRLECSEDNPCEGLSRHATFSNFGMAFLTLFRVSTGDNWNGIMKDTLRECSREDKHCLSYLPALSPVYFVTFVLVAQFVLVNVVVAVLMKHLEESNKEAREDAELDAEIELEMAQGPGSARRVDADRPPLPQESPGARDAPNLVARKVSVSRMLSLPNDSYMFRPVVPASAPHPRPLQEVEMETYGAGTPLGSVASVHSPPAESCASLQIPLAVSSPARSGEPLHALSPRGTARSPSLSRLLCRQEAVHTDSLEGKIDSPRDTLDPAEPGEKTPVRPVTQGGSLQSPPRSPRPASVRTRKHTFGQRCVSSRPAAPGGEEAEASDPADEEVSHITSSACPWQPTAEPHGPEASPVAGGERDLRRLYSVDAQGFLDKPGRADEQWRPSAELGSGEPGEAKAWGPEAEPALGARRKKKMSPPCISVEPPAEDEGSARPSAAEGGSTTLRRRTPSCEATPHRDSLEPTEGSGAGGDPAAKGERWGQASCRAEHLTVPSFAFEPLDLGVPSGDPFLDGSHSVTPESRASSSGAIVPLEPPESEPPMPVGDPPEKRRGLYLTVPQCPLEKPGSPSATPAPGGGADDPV

[17] = target: T4, Microphthalmia-associated transcription factor; assay: TRPM1 promoter luciferase signal decrease, dose response, MITF inhibitor project, cell-based, SK-MEL-5, cherry-picked, set 4 (AID 493102); assay type: functional
[18] = target: T4, Microphthalmia-associated transcription factor; assay: MITF Measured in Cell-Based System Using Plate Reader - 2084-01_Inhibitor_DoseNoFile_CherryPick_Activity_Set2. [Related pubchem assays (depositor defined):AID488944]; assay type: functional
[19] = target: Sphingosine 1-phosphate receptor 4 (Homo sapiens, UniProt O95977); assay: S1P4 receptor agonists, human, late-stage follow-up, cell-based, fluorescence, synthesized compounds (AID 463107); assay type: functional
Paired box protein Pax-8 = Paired box protein Pax-8 (Homo sapiens, UniProt Q06710); assay: inhibitors of PAX8-driven TPO luciferase reporter, dose response, RMG-I cells, cherry-pick (AID 687027); assay type: functional, cell-based;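 further: luciferase reporter driven by Pax8 target thyroperoxidase promoter measured by SteadyGlo luminescence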
Paired box protein Pax-8, sequence (Q06710 whole entry): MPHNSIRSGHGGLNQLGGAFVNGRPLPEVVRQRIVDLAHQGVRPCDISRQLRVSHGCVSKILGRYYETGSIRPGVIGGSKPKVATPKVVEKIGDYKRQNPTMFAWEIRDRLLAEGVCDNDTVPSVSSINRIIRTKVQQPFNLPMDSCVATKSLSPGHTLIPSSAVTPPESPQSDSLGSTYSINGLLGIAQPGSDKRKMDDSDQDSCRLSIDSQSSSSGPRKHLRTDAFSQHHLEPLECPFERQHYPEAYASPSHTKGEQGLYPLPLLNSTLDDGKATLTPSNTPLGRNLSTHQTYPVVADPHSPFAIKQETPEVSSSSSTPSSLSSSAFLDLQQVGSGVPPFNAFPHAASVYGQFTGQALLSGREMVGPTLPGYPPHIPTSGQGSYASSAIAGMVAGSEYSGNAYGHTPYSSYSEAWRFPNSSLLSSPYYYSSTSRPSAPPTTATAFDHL

[20] = target: Glutathione S-transferase omega-1 (Homo sapiens, UniProt P78417); assay: GSTO1 inhibitor potency, recombinant enzyme, late-stage follow-up, biochemical, SE-Rh probe, in-gel fluorescence, powder samples (AID 463081); assay type: functional
BJ [21] = assay: cells; assay type: functional, cell-based; settings: Homo sapiens
[22] = growth suppression of PTEN-null colon cells, dose response, cell-based, HCT116 PTEN knockout (AID 1047); assay type: functional;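 further: HCT116 colon tumor cells with PTEN knocked out; cells exposed to compound for 60 hours before readout; potency for loss of cell viability measured by luminescence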
[23] = target: T7, Heat shock factor protein 1 (Mus musculus, UniProt P38532); assay: inhibition of MG132-induced HSE-luciferase signal, confirmation, cell-based, NIH3T3, luminescence, dose retest (AID 2382); assay type: functional;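 further: NIH3T3 fibroblasts with HSF1-driven luciferase reporter stressed by proteasome inhibitor MG132; luminescence from HSF1-driven luciferase expression after 8 hours of MG132 stress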
T7 sequence (P38532 whole entry): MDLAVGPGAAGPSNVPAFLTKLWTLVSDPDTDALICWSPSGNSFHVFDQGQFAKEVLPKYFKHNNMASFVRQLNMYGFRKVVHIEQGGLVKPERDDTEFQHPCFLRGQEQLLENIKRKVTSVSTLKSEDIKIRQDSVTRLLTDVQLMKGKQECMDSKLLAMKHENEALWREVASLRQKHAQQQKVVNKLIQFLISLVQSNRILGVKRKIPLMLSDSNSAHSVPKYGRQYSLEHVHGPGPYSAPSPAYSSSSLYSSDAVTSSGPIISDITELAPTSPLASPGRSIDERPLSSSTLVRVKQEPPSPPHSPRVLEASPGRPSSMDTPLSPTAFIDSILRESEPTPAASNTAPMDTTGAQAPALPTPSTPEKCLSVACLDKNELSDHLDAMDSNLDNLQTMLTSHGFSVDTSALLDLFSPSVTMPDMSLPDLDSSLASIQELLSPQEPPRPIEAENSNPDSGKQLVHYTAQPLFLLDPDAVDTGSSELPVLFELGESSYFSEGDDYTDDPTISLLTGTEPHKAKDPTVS

[24] = growth suppression of beta-catenin-knockout colon cells, dose response, cell-based, HCT116, human colon tumor (AID 1045); assay type: functional;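 further: HCT116 colon tumor cells with beta catenin knocked out; cells exposed to compound for 60 hours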
[25] = non-specific cell cytotoxicity, dose response, cytotoxicity control for PAX8 inhibitor project, plate reader, dry powder samples (AID 743021); assay type: functional, cell-based
BJ [26] = assay: cytotoxicity toward BJ-TERT-LT-ST fibroblasts, dose response, cell-based, RAS-independent, luminescence (AID 1935); assay type: functional; settings: Homo sapiens;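 further: BJ fibroblasts immortalized with TERT plus LT and ST oncogenes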
[27] = cytotoxicity toward DRD oncogenic fibroblasts, dose response, cell-based, non-viral oncogenic, luminescence (AID 1934); assay type: functional; settings: Homo sapiens
BJ [28] = assay: cytotoxicity toward BJ-TERT fibroblasts, dose response, cell-based, RAS-independent, luminescence (AID 1933); assay type: functional; settings: Homo sapiens
BJ [29] = assay: cytotoxicity toward Ras-transformed BJeLR fibroblasts, dose response, cell-based, alamar blue fluorescence, cherrypicked samples (AID 2631); assay type: functional; settings: Homo sapiens;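 further: confirmatory dose-response assay in RAS-dependent BJ fibroblasts engineered with TERT, LT and ST, with cytotoxicity read by fluorescence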

T1 sequence (P41145 whole entry): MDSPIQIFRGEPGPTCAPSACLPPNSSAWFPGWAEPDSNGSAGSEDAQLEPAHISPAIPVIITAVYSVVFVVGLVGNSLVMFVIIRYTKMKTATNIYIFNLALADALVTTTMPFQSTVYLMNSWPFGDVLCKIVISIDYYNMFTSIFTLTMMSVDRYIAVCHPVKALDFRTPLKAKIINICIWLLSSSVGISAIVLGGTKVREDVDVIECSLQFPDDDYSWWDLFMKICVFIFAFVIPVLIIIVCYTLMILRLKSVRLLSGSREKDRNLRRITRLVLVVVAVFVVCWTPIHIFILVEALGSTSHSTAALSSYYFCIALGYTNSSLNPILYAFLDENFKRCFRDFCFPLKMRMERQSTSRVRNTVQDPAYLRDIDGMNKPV

C/C(=N\NC(=O)C(C)Oc1ccc([N+](=O)[O-])cc1)c1ccccn1 (configuration not stated)
IC50 (cells): 6280 nM (active)
IC50 [1]: 3190 nM (active)
CC50 [2]: 3540 nM (active)
AC50 (INS1): 1120 nM (active)
IC50 [3]: 9480 nM (active)
EC50 (Beta-galactosidase [4]): > 31500 nM (inactive)
AC50 [5]: 2380 nM (active)
EC50 (Beta-galactosidase [6]): > 40000 nM (inactive)
IC50 [7]: > 32000 nM
CC50 [8]: 1540 nM (active)
CC50 [9]: 8260 nM (active)
IC50 (Nonstructural protein 1): 6880 nM (active)
CC50 [10]: 1800 nM (active)

COc1ccc2nc(C)cc(Sc3nc4ccccc4s3)c2c1
CC50 [11]: 26400 nM (active)
IC50 [12]: 1910 nM (active)
IC50 [13]: > 80000 nM (inactive)
EC50 (Protein RecA): 2890 nM (active)
EC50 [14]: 479 nM (active)
CC50 (Vero): 14300 nM (active)
AC50 [15]: 2870 nM (active)

O=C(COc1ccccc1Cl)Nc1nnc(-c2ccc3c(c2)CCCC3)o1
EC50 [16]: 10000 nM (active)

CCCCN=c1nc(S)n(-c2ccccc2)c(C)c1C(C)=O
AC50 [5]: > 350000 nM (inactive)
AC50 [17]: > 350000 nM (inactive)
AC50 [18]: > 350000 nM (inactive)

Cc1ccc(OCCc2ccc(Cl)cc2Cl)c([N+](=O)[O-])n1
EC50 [19]: 2100 nM (active)

COc1ccc(C(C(=O)NC2CCCCC2)N(C(=O)CCl)c2cccc(Cl)c2)cc1 (configuration not stated)
AC50 (Paired box protein Pax-8): < 500 nM (active)
IC50 [20]: 32 nM (active)
EC50 (BJ [21]): 987 nM (inconclusive)
EC50 [22]: 1360 nM (active)
EC50 [23]: 691 nM (active)
EC50 [24]: 1090 nM (active)
AC50 [25]: 1020 nM (active)
EC50 (Protein RecA): 202 nM (active)
EC50 (BJ [26]): 4570 nM (active)
EC50 [27]: 518 nM (active)
EC50 (BJ [28]): 176 nM (inconclusive)
EC50 (BJ [29]): 122 nM (active)
